Where two headings read alike, the source gives them in different places.
Legend:
[1] = system: T. b. brucei B48; assay: microbe, parasite or virus in culture; type: cell-based, Trypanosoma brucei brucei; settings: for T. b. brucei B48 RF: RF = EC50 (parasite)/EC50(s427 WT); for T. b. brucei B48 SI: SI = EC50 (HEK)/EC50(parasite)
[2] = system: T. equiperdum (BoTat1); assay: resazurin drug sensitivity assay, T. equiperdum; type: cell-based, Trypanosoma equiperdum; settings: for T. equiperdum RF: RF = EC50 (parasite)/EC50(s427 WT); for T. equiperdum SI: SI = EC50 (HEK)/EC50(parasite)
[3] = system: Trypanosoma congolense (IL3000); assay: resazurin drug sensitivity assay, T. congolense; type: cell-based; settings: for T. congolense RF: RF = EC50 (parasite)/EC50(s427 WT); for T. congolense SI: SI = EC50 (HEK)/EC50(parasite)
[4] = system: T. evansi (AnTat 3/3); assay: resazurin drug sensitivity assay, T. evansi; type: cell-based, Trypanosoma evansi; settings: for T. evansi RF: RF = EC50 (parasite)/EC50(s427 WT); for T. evansi SI: SI = EC50 (HEK)/EC50(parasite); for EC50: Trypanosoma evansi
[5] = system: HEK 293 cells; assay: toxicity assay on HEK 293 cells (Alamar Blue); settings: for toxicity to HEK 293 cells at the highest concentration tested: highest tested concentration 100 or 200 µg/mL (1: 300 µM; 4: 140 µM; 5: 427 µM); for EC50: read-out: HEK 293 EC50, average ± SEM
[6] = system: Leishmania mexicana promastigotes; assay: resazurin drug sensitivity assay, L. mexicana promastigotes; type: cell-based; settings: for L. mexicana SI: SI = EC50 (HEK)/EC50(parasite)
[7] = system: T. b. brucei s427; assay: resazurin drug sensitivity assay, T. b. brucei s427 wild-type bloodstream forms; type: cell-based, Trypanosoma brucei brucei; settings: for T. b. brucei s427 SI: SI = EC50 (HEK)/EC50(parasite); for EC50: read-out: T. b. brucei s427 EC50
[8] = system: trypanosomes of the Trypanozoon subgenus (T. b. brucei, T. evansi and T. equiperdum); assay: resazurin assay, summary over Trypanozoon subgenus trypanosomes; type: cell-based, Trypanosoma; settings: for EC50: Trypanosoma brucei, T. b. brucei s427, B48, T. evansi, T. equiperdum, read-out: EC50 values against trypanosomes of the Trypanozoon subgenus (range)
[9] = system: T. b. brucei s427; set-up: method as in PMID 27313159; settings: cited from earlier work
[10] = system: all trypanosome species; assay: resazurin assay, summary over trypanosome species; type: cell-based, Trypanosoma
[11] = system: kinetoplastid parasites (trypanosomes and L. mexicana); assay: resazurin assay, summary of anti-kinetoplastid activity across the board; type: cell-based; settings: Leishmania mexicana, read-out: EC50, anti-kinetoplastid activity across the board (range)
[12] = system: macrophages RAW264.7; set-up: method as in doi:10.3390/M1070; settings: normal cell lines; cited from earlier work
[13] = system: T. b. brucei s427; set-up: method as in doi:10.3390/M1070; settings: read-out: EC50 against T. b. brucei s427; cited from earlier work
[14] = Trypanosoma brucei, read-out: T. b. brucei B48 EC50, multi-drug-resistant clone, average ± SEM
[15] = Trypanosoma equiperdum, average ± SEM
[16] = Trypanosoma congolense, average ± SEM
[17] = Leishmania mexicana, read-out: L. mexicana EC50, promastigotes, average ± SEM
[18] = printed in brackets beside the µg/mL value
[19] = Leishmania mexicana, promastigotes, average ± SEM, read-out: L. mexicana EC50
[20] = Trypanosoma brucei, average ± SEM, at least three independent determinations
[21] = a = EC50 of control for 1, 3, 4
[22] = b = EC50 of control for 5, 6, 7

| Structure (SMILES) | T. b. brucei B48 RF [1] | T. b. brucei B48 SI [1] | EC50 [1, 14] [µM] | T. equiperdum RF [2] | T. equiperdum SI [2] | EC50 [2, 15] [µM] | T. congolense RF [3] | T. congolense SI [3] | EC50 [3, 16] [µM] | T. evansi RF [4] | T. evansi SI [4] | EC50 ([4]; average ± SEM) [µM] | EC50 [5] [µM] | T. b. brucei s427 SI [7] | EC50 ([7]; Trypanosoma brucei) [µM] | EC50 [6, 19] [µM] | EC50 [7, 20] [µM] | other results |
| --- | --- | --- | --- | --- | --- | --- | --- | --- | --- | --- | --- | --- | --- | --- | --- | --- | --- | --- |
| COc1ccc(C(=O)C[C@H](O)c2c(O)cc(OC)cc2OC)cc1 [Compound 1, (S)-3-hydroxy-3-(2″-hydroxy-4″,6″-dimethoxyphenyl)-1-(4′-methoxyphenyl)propan-1-one] | 1.4 | >6.0 | 50.2 ± 15 | 0.60 | >14 | ~20 | 6.9 | >1.2 | 246 ± 5 | 1.3 | >6.5 | 46 ± 2.4 | > 300 | >8.5 | 35.5 ± 3.6 | – | – | EC50 ([2]; average ± SEM): 21.4 ± 3.9 µM; toxicity to HEK 293 cells at the highest concentration tested [5]: non-toxic; EC50 [6, 17]: 581 ± 3 µM |
| CC(=O)O[C@@H]1[C@H]2[C@H]3[C@H]([C@H](OC(C)=O)[C@H](OC(C)=O)[C@]2(C)[C@@H]2[C@@H]1[C@]1(C)C(=C[C@H]2C)OC(=O)[C@@]1(C)O)[C@]1(C)[C@H](C[C@@H]2O[C@@H]2[C@@H]1OC(C)=O)C(=O)[C@@H]3O [Compound 3, taccalonolide A] | 0.7 | >3.1 | 45.4 ± 4.1 | 0.86 | >2.6 | 55.8 | 1.6 | >1.4 | 105 ± 41 | 1.0 | >2.2 | 66.3 ± 9.5 | > 143 | >2.2 | – | > 285 | 64.7 ± 21.2 | EC50 [8]: 45.4 to 66.3 µM; RF (cross-resistance) with B48, T. evansi and T. equiperdum ([8]; relative to s427): ≤ 1; activity against T. b. brucei s427 [9]: 11.42 µg/mL; activity against T. b. brucei s427 [9, 18]: 16.3 µM; L. mexicana EC50 ([6]; promastigotes, average ± SEM): low activity |
| CCC(=O)O[C@H]1[C@@H](OC(C)=O)[C@H]2[C@H]([C@@H]3[C@@H](OC(C)=O)[C@@H]4[C@H]([C@H](C)C=C5OC(=O)[C@@](C)(O)[C@@]54C)[C@]31C)[C@@H](O)C(=O)[C@H]1C[C@@H]3O[C@@H]3[C@H](OC(C)=O)[C@]21C [Compound 4, Taccalonolide A 12-propanoate] | 1.4 | >1.9 | 75.1 ± 12.3 | 1.5 | >1.8 | 77.7 ± 10.5 | >2.8 | – | > 140 | 1.6 | >1.7 | 82.7 ± 7.4 | > 140 | >2.6 | – | > 280 | 53.4 | activity against T. b. brucei s427 [9]: 3.13 µg/mL; activity against T. b. brucei s427 [9, 18]: 4.6 µM; L. mexicana EC50 ([6]; promastigotes, average ± SEM): low activity; EC50 ([7]; average ± SEM, at least three independent determinations): 53.3 ± 8.6 µM |
| CC(=O)O[C@H]1CC[C@]2(C)[C@H]3CC[C@]4(C)C(=CC[C@@]5(C)CCC(C)(C)C[C@H]54)[C@]3(C)CC[C@H]2C1(C)C [Compound 5, taraxerol acetate] | 0.75 | >3.4 | 128 ± 5 | 0.13 | >20 | ~20 | 1.1 | – | 178 ± 14 | 0.4 | >6.8 | 62.9 ± 1.5 | > 427 | >3.1 | 138 ± 61 | – | – | EC50 ([2]; average ± SEM): 21.3 ± 0.3 µM; toxicity to HEK 293 cells at the highest concentration tested [5]: not toxic; EC50 ([10]; Trypanosoma equiperdum, all but T. equiperdum, read-out: EC50 against most trypanosome species): > 60 µM; EC50 [6, 17]: > 427 µM |
| COc1ccc2c(c1OC)CN(C)c1c-2ccc2cc3c(cc12)OCO3 [Compound 6, dihydrochelerythrin] | 1.8 | 37.0 | 2.56 | 2.2 | 30.4 | 3.09 ± 0.52 | 6.0 | 11.4 | 8.3 ± 0.57 | 0.8 | 87 | 1.09 ± 0.06 | 94.4 ± 23.2 | 68.0 | – | 5.4 ± 0.6 | 1.37 ± 0.43 | EC50 [8]: 1.37 to 3.09 µM; EC50 ([1]; read-out: T. b. brucei B48 EC50, multi-drug-resistant clone, average ± SEM): 2.55 ± 0.29 µM; EC50 [11]: 1.4 to 8.3 µM; L. mexicana SI [6]: 18; EC50 ([6]; promastigotes, average ± SEM, read-out: L. mexicana EC50): 5.44 ± 0.57 µM |
| CC(C)CNC(=O)/C=C/c1ccc2c(c1)OCO2 [Compound 7, fagaramide] | 0.6 | 33.8 | 10.9 ± 0.4 | 1.5 | 13.4 | 27.1 ± 0.1 | 1.9 | 10.6 | 34.4 ± 5.7 | 0.6 | 33.0 | 10.9 ± 0.4 | 364 ± 44 | 20.4 | 17.8 ± 7.3 | 13.3 ± 0.4 | – | EC50 [12]: 215 µM; EC50 ([10]; Trypanosoma, read-out: EC50 against all trypanosome species (range)): 10.9 to 34.4 µM; EC50 [13]: 7.3 µM; EC50 [11]: 10.9 to 34.4 µM; L. mexicana SI [6]: 27 |
| N=C(N)c1ccc(N=NNc2ccc(C(=N)N)cc2)cc1 [DA, diminazene aceturate, reference compound] | – | – | – | – | – | – | – | – | – | – | – | – | – | – | – | – | – | EC50 [3, 21]: 0.51 µM; EC50 [3, 22]: 0.46 µM |
| N=C(N)c1ccc(OCCCCCOc2ccc(C(=N)N)cc2)cc1 [PMD, pentamidine isethionate, reference compound] | approximately 50 | – | – | – | – | – | – | – | – | – | – | – | – | – | – | – | – | EC50 ([1]; Trypanosoma brucei, read-out: T. b. brucei B48 EC50, a = EC50 of control for 1, 3, 4): 0.312 µM; EC50 ([1]; Trypanosoma brucei, read-out: T. b. brucei B48 EC50, b = EC50 of control for 5, 6, 7): 0.288 µM; T. b. brucei B48 RF ([1]; a = control for 1, 3, 4): 47.3; T. b. brucei B48 RF ([1]; b = control for 5, 6, 7): 55.4; EC50 ([2]; Trypanosoma equiperdum, a = EC50 of control for 1, 3, 4): 0.0081 µM; EC50 ([2]; Trypanosoma equiperdum, b = EC50 of control for 5, 6, 7): 0.0033 µM; EC50 [4, 21]: 0.016 µM; EC50 [4, 22]: 0.0025 µM; EC50 ([6]; Leishmania mexicana, a = EC50 of control for 1, 3, 4, read-out: L. mexicana EC50): 1.1 µM; EC50 ([6]; Leishmania mexicana, b = EC50 of control for 5, 6, 7, read-out: L. mexicana EC50): 0.76 µM; EC50 ([7]; Trypanosoma brucei, a = EC50 of control for 1, 3, 4): 0.0066 µM; EC50 ([7]; Trypanosoma brucei, b = EC50 of control for 5, 6, 7): 0.0052 µM |
